How the values were obtained:
WEE1 = WEE1 (Homo sapiens, UniProt P30291); experiment: KINOMEscan; assay type: binding; conditions: 1 μM
LOK = target: T1, LOK (Homo sapiens, UniProt O94804); experiment: KINOMEscan; assay type: binding; conditions: 1 μM
T1 construct: purchased Eurofins DiscoverX Corporation

CSNK1G3 = target: T2, CSNK1G3 (Homo sapiens, UniProt Q9Y6M4); experiment: KINOMEscan; assay type: binding; conditions: 1 μM
T2 construct: purchased Eurofins DiscoverX Corporation

MYLK4 = target: T3, MYLK4 (Homo sapiens, UniProt Q86YV6); experiment: KINOMEscan; assay type: binding; conditions: 1 μM
T3 construct: purchased Eurofins DiscoverX Corporation

CDK3 = CDK3 (Homo sapiens, UniProt Q00526); experiment: KINOMEscan; assay type: binding; conditions: 1 μM
LIMK2 = target: T4, LIMK2 (Homo sapiens, UniProt P53671); experiment: KINOMEscan; assay type: binding; conditions: 1 μM
T4 construct: purchased Eurofins DiscoverX Corporation

MKNK2 = target: T5, MKNK2 (Homo sapiens, UniProt Q9HBH9); experiment: KINOMEscan; assay type: binding; conditions: 1 μM
T5 construct: purchased Eurofins DiscoverX Corporation

NIM1 = NIM1 (Homo sapiens, UniProt Q8IY84); experiment: KINOMEscan; assay type: binding; conditions: 1 μM
YANK2 = YANK2 (Homo sapiens, UniProt Q9NY57); experiment: KINOMEscan; assay type: binding; conditions: 1 μM
ALK(C1156Y) = ALK(C1156Y) (Homo sapiens, UniProt Q9UM73, C1156Y); experiment: KINOMEscan; assay type: binding; conditions: 1 μM
PFTK1 = PFTK1 (Homo sapiens, UniProt O94921); experiment: KINOMEscan; assay type: binding; conditions: 1 μM
NLK = NLK (Homo sapiens, UniProt Q9UBE8); experiment: KINOMEscan; assay type: binding; conditions: 1 μM
IKK-epsilon = target: T6, IKK-epsilon (Homo sapiens, UniProt Q14164); experiment: KINOMEscan; assay type: binding; conditions: 1 μM
T6 construct: purchased Eurofins DiscoverX (KINOMEscan)

[1] = system: EGFR phosphorylation (pY1068) in HCC827 (exon19 delE746-A750) cells; experiment: Western blot; assay type: cell-based, human; conditions: HCC827, 6 h
Procedure: (§1) H1975, H3255, H3255GR and HCC827 lung adenocarcinoma cells (obtained from Dr. Pasi Jänne in Dana-Farber Cancer Institute, 2022) were cultured in RPMI 1640 media (Corning, 1004-CV) supplemented with 10% FBS (Tissue Culture Biologicals, 35-010-CV) and 1% penicillin-streptomycin (P/S, Corning, 30-002-CI). All cell lines were tested negative for Mycoplasma using Myco-Sniff-Rapid™ Mycoplasma Luciferase Detection Kit Plus PCR Primer Set (MP biomedicals, 0930504-CF) and were passaged and/or used for no longer than 4 weeks for all experiments H1975 and HCC-827 cells were seeded in 6-well plates with 400,000 cells per well and incubated overnight. H3255 and H3255GR cells were seeded in 12-well plates with 200,000 cells per well and were grown to confluency after 48 h. Culture medium was removed, cells washed with PBS, and lysed with lysis buffer containing 5 M NaCl, 1 M TRIS pH 8.0, 10% SDS, 10% Triton X-100 and a tablet of protease and phosphatase inhibitor. Protein lysate concentration was analyzed using Pierce BCA kit (ThermoFisher, 23225). Protein samples (10 µg) were resolved on hand-cast Criterion Tris-HCl protein gels. Primary antibodies used; phospho-EGFR (Tyr1068; #2234, 1:1,000), EGFR (#4267; 1:1,000), phospho-AKT (Ser473; #4060, 1:1,000), AKT (#9272, 1:1,000), phospho-ERK1/2 (Thr202/Tyr204; #4370, 1:1,000), and ERK1/2 (#4695, 1:1,000) antibodies; were purchased from Cell Signaling Technology. Secondary Goat anti-rabbit IgG starbright blue 700 (Biorad, 64484700) and Anti-tubulin hFAB Rhodamine Tubulin (Bio-Rad, 64512248). Western blots were visualized with the ChemiDoc MP imager (Bio-Rad) utilizing the Image Lab Touch Software (version 2.4.0.03). All Western blot images are representatives of at least 3 independent replicate experiments.

[2] = system: EGFR phosphorylation (pY1068) in H3255GR (LRTM) cells; experiment: Western blot; assay type: cell-based, human; conditions: 6 h
Procedure: as §1

[3] = system: EGFR phosphorylation (pY1068) in H3255 (LR) cells; experiment: Western blot; assay type: cell-based, human; conditions: H3255, 6 h
Procedure: as §1

AURKC = AURKC (Homo sapiens, UniProt Q9UQB9); experiment: KINOMEscan; assay type: binding; conditions: 1 μM
TNK1 = target: T7, TNK1 (Homo sapiens, UniProt Q13470); experiment: KINOMEscan; assay type: binding; conditions: 1 μM
T7 construct: purchased Eurofins DiscoverX Corporation

LCK = target: T8, LCK (Homo sapiens, UniProt P06239); experiment: KINOMEscan; assay type: binding; conditions: 1 μM
T8 construct: purchased Eurofins DiscoverX Corporation

DYRK1A = target: T9, DYRK1A (Homo sapiens, UniProt Q13627); experiment: KINOMEscan; assay type: binding; conditions: 1 μM
T9 construct: purchased Eurofins DiscoverX Corporation

AKT1 = AKT1 (Homo sapiens, UniProt P31749); experiment: KINOMEscan; assay type: binding; conditions: 1 μM
DDR1 = target: T10, DDR1 (Homo sapiens, UniProt Q08345); experiment: KINOMEscan; assay type: binding; conditions: 1 μM
T10 construct: purchased Eurofins DiscoverX Corporation

MST1 = target: T11, MST1 (Homo sapiens, UniProt Q13043); experiment: KINOMEscan; assay type: binding; conditions: 1 μM
T11 construct: purchased Eurofins DiscoverX Corporation
T11 sequence (Q13043 whole entry): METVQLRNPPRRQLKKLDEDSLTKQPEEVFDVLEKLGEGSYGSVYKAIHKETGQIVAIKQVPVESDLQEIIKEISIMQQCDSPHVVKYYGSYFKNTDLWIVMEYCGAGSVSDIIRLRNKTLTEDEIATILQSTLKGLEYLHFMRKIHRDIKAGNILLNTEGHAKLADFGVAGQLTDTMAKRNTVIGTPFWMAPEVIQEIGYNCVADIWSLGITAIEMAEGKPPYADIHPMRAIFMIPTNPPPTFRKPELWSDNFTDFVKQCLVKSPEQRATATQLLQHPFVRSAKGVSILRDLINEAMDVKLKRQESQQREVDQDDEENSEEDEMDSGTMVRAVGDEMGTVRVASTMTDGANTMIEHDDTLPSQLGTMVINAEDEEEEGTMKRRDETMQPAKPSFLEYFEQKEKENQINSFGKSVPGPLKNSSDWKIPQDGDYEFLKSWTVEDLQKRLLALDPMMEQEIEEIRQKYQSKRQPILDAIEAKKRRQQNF

AKT1, sequence (P31749 whole entry): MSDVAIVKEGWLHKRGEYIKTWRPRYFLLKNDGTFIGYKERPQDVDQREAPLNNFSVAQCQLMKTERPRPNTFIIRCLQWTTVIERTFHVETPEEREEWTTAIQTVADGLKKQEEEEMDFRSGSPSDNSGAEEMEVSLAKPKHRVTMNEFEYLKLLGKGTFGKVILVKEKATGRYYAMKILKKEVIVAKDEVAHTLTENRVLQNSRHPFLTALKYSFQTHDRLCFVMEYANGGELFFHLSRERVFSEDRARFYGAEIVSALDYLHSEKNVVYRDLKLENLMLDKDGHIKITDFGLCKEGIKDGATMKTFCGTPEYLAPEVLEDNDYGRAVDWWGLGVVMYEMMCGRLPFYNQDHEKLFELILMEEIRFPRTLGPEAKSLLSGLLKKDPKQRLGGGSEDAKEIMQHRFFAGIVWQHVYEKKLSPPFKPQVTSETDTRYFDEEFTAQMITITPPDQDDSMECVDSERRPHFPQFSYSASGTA
T6 sequence (Q14164 whole entry): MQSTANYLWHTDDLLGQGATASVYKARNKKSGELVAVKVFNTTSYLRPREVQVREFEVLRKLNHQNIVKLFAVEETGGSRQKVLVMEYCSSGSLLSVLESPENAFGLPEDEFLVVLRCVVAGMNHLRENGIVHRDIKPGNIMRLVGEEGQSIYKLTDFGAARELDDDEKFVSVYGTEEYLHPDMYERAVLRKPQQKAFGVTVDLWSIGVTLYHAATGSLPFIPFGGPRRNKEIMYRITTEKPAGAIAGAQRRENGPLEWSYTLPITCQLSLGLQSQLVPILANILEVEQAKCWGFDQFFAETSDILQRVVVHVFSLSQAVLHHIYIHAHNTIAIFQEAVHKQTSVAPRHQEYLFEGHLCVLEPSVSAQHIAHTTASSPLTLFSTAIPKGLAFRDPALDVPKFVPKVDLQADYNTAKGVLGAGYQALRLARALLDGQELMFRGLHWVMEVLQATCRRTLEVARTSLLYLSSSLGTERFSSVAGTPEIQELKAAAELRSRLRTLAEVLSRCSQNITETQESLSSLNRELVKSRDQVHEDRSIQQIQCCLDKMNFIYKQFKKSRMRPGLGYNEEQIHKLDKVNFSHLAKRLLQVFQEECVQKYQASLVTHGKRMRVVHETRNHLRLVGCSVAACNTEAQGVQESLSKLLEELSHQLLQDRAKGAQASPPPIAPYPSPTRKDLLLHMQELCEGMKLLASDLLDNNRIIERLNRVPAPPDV
NLK, sequence (Q9UBE8 whole entry): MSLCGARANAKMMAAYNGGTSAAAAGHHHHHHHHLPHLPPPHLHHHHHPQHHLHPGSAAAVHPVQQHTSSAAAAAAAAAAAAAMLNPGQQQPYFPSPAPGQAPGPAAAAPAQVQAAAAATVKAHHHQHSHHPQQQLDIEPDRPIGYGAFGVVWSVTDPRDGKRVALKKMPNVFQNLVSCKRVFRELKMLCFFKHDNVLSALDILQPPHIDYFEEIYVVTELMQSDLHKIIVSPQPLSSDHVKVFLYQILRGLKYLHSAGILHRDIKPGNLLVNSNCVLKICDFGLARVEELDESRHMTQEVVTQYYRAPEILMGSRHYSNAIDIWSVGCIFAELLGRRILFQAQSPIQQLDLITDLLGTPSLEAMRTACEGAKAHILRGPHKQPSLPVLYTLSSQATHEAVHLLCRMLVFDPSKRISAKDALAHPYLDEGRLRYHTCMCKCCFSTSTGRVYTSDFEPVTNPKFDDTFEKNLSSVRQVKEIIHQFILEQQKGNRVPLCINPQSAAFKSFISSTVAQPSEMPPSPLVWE
AURKC, sequence (Q9UQB9 whole entry): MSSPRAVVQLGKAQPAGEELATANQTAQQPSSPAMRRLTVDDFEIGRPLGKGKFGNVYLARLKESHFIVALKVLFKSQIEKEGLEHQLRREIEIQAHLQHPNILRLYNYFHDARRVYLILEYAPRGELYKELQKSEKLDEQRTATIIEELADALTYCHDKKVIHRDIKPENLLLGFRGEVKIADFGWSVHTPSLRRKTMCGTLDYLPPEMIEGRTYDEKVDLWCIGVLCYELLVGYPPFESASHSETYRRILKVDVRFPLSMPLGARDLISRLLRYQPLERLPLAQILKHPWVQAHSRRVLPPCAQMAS
PFTK1, sequence (O94921 whole entry): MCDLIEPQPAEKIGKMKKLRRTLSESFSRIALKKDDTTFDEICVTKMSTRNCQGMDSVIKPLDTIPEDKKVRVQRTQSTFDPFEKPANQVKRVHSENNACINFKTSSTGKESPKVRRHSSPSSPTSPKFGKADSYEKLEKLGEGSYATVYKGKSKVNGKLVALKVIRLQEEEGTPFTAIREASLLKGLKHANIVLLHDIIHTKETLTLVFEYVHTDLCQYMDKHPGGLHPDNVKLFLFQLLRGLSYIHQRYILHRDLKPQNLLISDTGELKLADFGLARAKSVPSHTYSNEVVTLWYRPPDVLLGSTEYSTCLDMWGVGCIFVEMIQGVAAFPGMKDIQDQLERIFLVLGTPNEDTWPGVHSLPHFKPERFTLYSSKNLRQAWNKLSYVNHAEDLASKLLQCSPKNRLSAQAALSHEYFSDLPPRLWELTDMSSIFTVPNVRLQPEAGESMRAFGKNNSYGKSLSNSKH
T4 sequence (P53671 whole entry): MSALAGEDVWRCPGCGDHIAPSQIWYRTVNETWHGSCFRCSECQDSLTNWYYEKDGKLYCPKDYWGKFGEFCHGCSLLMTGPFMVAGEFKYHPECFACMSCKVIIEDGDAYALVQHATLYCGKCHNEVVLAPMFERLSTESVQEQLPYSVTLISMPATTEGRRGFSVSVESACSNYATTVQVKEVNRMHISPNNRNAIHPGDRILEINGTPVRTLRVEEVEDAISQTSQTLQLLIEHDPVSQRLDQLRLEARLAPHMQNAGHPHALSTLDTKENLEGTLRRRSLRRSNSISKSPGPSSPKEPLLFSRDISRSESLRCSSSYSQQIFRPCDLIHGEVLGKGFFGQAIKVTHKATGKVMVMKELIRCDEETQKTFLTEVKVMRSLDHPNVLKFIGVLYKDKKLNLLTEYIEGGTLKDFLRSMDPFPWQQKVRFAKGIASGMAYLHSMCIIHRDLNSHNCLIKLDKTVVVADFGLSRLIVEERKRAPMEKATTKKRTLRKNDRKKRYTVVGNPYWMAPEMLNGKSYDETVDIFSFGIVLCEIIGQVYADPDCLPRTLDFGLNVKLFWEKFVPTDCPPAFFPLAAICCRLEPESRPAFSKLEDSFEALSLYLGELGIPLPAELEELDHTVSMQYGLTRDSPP
T7 sequence (Q13470 whole entry): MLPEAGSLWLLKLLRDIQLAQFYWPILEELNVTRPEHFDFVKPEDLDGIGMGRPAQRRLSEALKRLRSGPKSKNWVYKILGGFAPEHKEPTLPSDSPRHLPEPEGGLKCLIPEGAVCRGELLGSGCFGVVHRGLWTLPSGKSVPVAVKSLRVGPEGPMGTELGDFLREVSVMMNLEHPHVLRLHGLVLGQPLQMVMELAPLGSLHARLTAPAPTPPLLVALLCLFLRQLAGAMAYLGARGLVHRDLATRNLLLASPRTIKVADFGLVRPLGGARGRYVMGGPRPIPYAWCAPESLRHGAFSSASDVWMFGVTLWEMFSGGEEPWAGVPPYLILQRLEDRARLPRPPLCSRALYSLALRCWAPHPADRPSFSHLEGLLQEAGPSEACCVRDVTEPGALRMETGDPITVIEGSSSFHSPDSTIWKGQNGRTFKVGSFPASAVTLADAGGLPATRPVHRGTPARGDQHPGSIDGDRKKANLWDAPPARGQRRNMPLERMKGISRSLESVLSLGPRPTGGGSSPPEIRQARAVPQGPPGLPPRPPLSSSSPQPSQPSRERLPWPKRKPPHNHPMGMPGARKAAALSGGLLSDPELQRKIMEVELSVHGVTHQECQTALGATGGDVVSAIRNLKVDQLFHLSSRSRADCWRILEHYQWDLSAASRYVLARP
T8 sequence (P06239 whole entry): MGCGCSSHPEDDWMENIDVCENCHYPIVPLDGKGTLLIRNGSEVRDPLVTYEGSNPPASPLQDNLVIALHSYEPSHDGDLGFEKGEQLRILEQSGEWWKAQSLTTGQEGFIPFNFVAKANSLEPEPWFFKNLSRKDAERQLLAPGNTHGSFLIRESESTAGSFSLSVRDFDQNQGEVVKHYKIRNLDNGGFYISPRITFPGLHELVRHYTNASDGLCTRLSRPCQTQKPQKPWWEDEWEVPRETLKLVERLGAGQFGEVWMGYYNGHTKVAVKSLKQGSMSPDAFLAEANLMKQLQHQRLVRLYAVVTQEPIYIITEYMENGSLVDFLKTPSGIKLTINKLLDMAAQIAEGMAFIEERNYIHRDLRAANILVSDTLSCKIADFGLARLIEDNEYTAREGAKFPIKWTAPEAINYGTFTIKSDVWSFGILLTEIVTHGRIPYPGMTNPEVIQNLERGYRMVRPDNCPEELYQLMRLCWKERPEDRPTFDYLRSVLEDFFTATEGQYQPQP

SMILES: C=CC(=O)Nc1ccc(OC)c(Nc2cc(-c3[nH]c(CC)nc3-c3cccc(NC(=O)c4cccc5c4NC(=O)c4ccccc4N5)c3)ccn2)c1 [Compound 4]
- POC (WEE1): 85% of control
- POC (LOK): 49% of control
- POC (CSNK1G3): 98% of control
- POC (MYLK4): 95% of control
- POC (CDK3): 100% of control
- POC (LIMK2): 93% of control
- POC (MKNK2): 100% of control
- POC (NIM1): 78% of control
- POC (YANK2): 63% of control
- POC (ALK(C1156Y)): 87% of control
- POC (PFTK1): 90% of control
- POC (NLK): 48% of control
- POC (IKK-epsilon): 100% of control
- suppression of EGFR pY1068 phosphorylation [1]: analogous suppression of EGFR pY1068 phosphorylation
- suppression of EGFR pY1068 phosphorylation [2]: analogous suppression of EGFR pY1068 phosphorylation
- suppression of EGFR pY1068 phosphorylation [3]: analogous suppression of EGFR pY1068 phosphorylation
- POC (AURKC): 100% of control
- POC (TNK1): 22% of control
- POC (LCK): 7.7% of control
- POC (DYRK1A): 100% of control
- POC (AKT1): 89% of control
- POC (DDR1): 90% of control
- POC (MST1): 6% of control
